In this assay the target is T1, voltage-dependent T-type calcium channel subunit alpha-1G (Cav3.2) (Homo sapiens, UniProt O95180).
T1 construct: expressed in transfected cells; host or cells: HEK293
T1 sequence (O95180 whole entry): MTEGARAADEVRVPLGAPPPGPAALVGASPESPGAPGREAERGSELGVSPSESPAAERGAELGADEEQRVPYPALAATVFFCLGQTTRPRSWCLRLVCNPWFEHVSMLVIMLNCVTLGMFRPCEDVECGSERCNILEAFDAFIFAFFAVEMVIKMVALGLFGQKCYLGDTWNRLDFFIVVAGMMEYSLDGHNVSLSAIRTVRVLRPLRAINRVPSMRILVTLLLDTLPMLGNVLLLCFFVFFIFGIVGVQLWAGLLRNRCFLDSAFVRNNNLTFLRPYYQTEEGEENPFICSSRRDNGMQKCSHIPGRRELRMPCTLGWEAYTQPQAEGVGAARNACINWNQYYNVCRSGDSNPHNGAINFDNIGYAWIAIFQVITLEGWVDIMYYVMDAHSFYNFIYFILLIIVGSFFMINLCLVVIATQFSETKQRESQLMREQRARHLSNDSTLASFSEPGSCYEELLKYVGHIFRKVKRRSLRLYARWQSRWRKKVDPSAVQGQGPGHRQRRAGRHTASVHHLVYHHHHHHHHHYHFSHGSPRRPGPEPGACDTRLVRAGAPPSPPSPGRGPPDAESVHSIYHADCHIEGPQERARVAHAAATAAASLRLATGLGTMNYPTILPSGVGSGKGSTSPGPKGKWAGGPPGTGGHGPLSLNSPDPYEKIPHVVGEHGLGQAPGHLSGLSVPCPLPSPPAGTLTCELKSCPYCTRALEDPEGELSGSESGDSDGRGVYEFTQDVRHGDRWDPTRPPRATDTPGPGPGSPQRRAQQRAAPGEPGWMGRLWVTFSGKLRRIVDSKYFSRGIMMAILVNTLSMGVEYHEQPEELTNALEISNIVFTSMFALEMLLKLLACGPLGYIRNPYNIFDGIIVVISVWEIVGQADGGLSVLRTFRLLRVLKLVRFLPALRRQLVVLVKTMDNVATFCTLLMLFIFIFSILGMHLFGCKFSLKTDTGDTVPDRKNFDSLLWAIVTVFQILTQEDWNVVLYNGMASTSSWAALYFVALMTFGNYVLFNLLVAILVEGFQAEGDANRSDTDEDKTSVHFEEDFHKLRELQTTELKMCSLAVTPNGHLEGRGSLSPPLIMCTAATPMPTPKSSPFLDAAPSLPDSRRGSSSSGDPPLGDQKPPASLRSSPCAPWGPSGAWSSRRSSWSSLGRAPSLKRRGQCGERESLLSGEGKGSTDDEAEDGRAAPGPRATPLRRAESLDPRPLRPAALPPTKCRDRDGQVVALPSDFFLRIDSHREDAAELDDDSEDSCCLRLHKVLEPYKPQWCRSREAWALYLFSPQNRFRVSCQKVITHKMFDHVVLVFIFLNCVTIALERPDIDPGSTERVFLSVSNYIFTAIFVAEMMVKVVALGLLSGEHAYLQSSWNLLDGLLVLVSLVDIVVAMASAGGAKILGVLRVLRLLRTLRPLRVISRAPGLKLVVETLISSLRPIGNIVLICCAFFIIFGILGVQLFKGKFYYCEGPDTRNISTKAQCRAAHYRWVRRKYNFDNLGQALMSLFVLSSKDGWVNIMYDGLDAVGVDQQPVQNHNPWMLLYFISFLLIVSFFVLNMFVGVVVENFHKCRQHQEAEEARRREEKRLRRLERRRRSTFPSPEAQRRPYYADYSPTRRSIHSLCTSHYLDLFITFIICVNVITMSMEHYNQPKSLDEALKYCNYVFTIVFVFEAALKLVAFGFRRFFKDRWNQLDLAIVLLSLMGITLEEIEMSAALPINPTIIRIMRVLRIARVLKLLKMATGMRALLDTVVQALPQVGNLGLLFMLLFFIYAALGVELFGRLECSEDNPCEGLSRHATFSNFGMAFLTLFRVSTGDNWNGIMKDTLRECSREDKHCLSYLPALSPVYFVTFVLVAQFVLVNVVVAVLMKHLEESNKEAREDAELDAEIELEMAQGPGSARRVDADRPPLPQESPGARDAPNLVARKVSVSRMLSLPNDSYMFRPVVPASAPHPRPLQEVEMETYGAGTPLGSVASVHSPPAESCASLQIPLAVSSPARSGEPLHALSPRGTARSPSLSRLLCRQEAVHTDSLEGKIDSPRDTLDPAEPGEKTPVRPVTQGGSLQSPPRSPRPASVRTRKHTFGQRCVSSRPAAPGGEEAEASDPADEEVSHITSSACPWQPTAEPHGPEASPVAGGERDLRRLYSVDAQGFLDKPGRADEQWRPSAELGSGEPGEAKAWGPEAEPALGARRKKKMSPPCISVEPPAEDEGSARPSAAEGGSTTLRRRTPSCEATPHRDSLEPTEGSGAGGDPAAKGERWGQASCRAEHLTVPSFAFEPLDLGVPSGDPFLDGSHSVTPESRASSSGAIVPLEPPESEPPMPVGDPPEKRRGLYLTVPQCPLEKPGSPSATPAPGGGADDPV
Kind of assay: FLIPR calcium flux assay, HEK293 cells recombinantly expressing Cav3.2. It counts as cell-based. To be noted: Cav3.2-channel, Fluo-4-AM, 3 min incubation, stimulation with 10 mM CaCl2. As for the experimental part: In Vitro Methods—Measurement of Calcium Channel Flux by Means of FLIPR Assays.
HEK293 cells recombinantly expressing either voltage-dependent T-type calcium channel subunit […] (Cav3.2) or voltage-dependent L-type calcium channel subunit alpha-1C (Cav1.2) are assayed for calcium flux using the calcium indicator dye Fluo-4-AM (Molecular Devices) and FLIPR technology (Fluorometric Imaging Plate Reader, Molecular Devices) (Xie X, Van Deusen A L, Vitko I, Babu D A, Davies L A, Huynh N, Cheng H, Yang N, Barrett P Q, Perez-Reyes E. Validation of high throughput screening assays against three subtypes of Ca(v)3 T-type channels using molecular and pharmacologic approaches. Assay and Drug Development Technologies 2007, 5(2), 191-203). The HEK293 cells recombinantly expressing Cav3.2 are maintained in DMEM growth medium (Life Technologies) supplemented with 10% Fetal Bovine Serum (FBS), 100 U/ml penicilin (Life Technologies), 100 μg/ml streptomycin (Life Technologies) and 1 mg/ml G418 (Life Technologies). HEK293 cells recombinantly expressing Cav1.2 are maintained in DMEM growth medium (Life technologies) supplemented with 10% FBS, 0.1 mg/ml G418 (Life Technologies), 0.1 mg/ml hygromycin (Life Technologies) and 40 ug/ml zeocin (Life Technologies).
The seeded plates are incubated overnight at 37° C.
The cells are then washed three times with assay buffer (HBSS 1×; 0.375 g/L NaHCO3; 20 mM Hepes; 1% FBS; pH 7.4) and allowed to rest in 50 μl of wash buffer for 30 minutes.
Stock solutions of test compounds are prepared to a concentration of 10 mM in DMSO. For the Cav3.2 assay, serial dilutions of the compounds are prepared in TEAC buffer (100 mM tetraethylammonium chloride; 20 mM Hepes; 2.5 mM CaCl2; 5 mM KCl; 1 mM MgCl2; 1% FBS; pH 7.2), for the Cav1.2 assay serial dilutions are prepared in assay buffer. […] The compounds are incubated with the cells for 3 minutes and Ca2+ entry is stimulated by adding either CaCl2 to a final concentration of 10 mM (Cav3.2 assay) or by adding KCl to a final concentration of 20 mM (Cav1.2 assay). The kinetics of fluorescence increase are recorded for every well and the area under the fluorescence trace for every compound concentration is used to generate inhibition curves using non-linear regression sigmoidal concentration-response curve analysis with in-house software.
As to `COC(C)c1ccc(CC(=O)Nc2ccn(Cc3ccc(F)cc3)n2)cc1` (racemic) [Example 201, rac-N-[1-(4-Fluoro-benzyl)-1H-pyrazol-3-yl]-2-[4-(1-methoxy-ethyl)-phenyl]-acetamide], the half-maximal inhibitory concentration (IC50) stood at 30 nM.
With `COC(C)c1ccc(CC(=O)Nc2ccn(Cc3ccc(F)c(F)c3)n2)cc1` (racemic) [Example 202, rac-N-[1-(3,4-Difluoro-benzyl)-1H-pyrazol-3-yl]-2-[4-(1-methoxy-ethyl)-phenyl]-acetamide], the half-maximal inhibitory concentration (IC50) amounted to 16 nM.
The same measure for `COC(C)c1ccc(CC(=O)Nc2ccn(Cc3ccc(C#N)cn3)n2)cc1` (racemic) [Example 203, rac-N-[1-(5-Cyano-pyridin-2-ylmethyl)-1H-pyrazol-3-yl]-2-[4-(1-methoxy-ethyl)-phenyl]acetamide]: 1260 nM; for `COC(C)c1ccc(CC(=O)Nc2ccn(Cc3ccc(F)c(C#N)c3)n2)cc1` (racemic) [Example 319, rac-N-[1-(3-Cyano-4-fluoro-benzyl)-1H-pyrazol-3-yl]-2-[4-(1-methoxy-ethyl)-phenyl]-acetamide]: 66 nM.
As for `COC(C)c1ccc(CC(=O)Nc2ccn(Cc3ccc(C#N)cc3)n2)cc1` (racemic) [Example 320, rac-N-[1-(4-Cyano-benzyl)-1H-pyrazol-3-yl]-2-[4-(1-methoxy-ethyl)-phenyl]-acetamide], the IC50 worked out at 99 nM.
The same measure for `N#Cc1ccc(Cn2ccc(NC(=O)Cc3ccc([C@@H]4C[C@H]4C(F)(F)F)cc3)n2)nc1` (racemic) [Example 383, rac-N-[1-(5-Cyano-pyridin-2-ylmethyl)-1H-pyrazol-3-yl]-2-[4-((1R*,2R*)-2-trifluoromethyl-cyclopropyl)-phenyl]-acetamide]: 36 nM; for `CC1COc2cc(CC(=O)Nc3ccn(Cc4ccc(C#N)cn4)n3)ccc2C1` (racemic) [Example 388, rac-N-[1-(5-Cyano-pyridin-2-ylmethyl)-1H-pyrazol-3-yl]-2-(3-methyl-chroman-7-yl)-acetamide]: 30 nM; for `CO[C@H](C)c1ccc(CC(=O)Nc2ccn(Cc3ccc(F)c(F)c3)n2)cc1` (single isomer, unassigned) [Example 232]: 5.8 nM.
The same measure for `CO[C@@H](C)c1ccc(CC(=O)Nc2ccn(Cc3ccc(F)c(F)c3)n2)cc1` (single isomer, unassigned) [Example 233]: 8.1 nM; for `CC(C)c1ccc(CC(=O)Nc2ccn(Cc3ccc(Cl)cc3)n2)cc1` [Example 1, N-[1-(4-Chloro-benzyl)-1H-pyrazol-3-yl]-2-(4-isopropyl-phenyl)-acetamide]: 14 nM; for `CN(C)c1ccc(CC(=O)Nc2ccn(Cc3ccc(F)cc3)n2)cn1` [Example 4, 2-(6-Dimethylamino-pyridin-3-yl)-N-[1-(4-fluoro-benzyl)-1H-pyrazol-3-yl]-acetamide]: 82 nM.
For the compound `CN(C)c1ccc(CC(=O)Nc2ccn(Cc3ccc(Cl)cc3)n2)cn1` [Example 5, N-[1-(4-Chloro-benzyl)-1H-pyrazol-3-yl]-2-(6-dimethylamino-pyridin-3-yl)-acetamide], the IC50 came out at 20 nM.
The same measure for `CC(C)c1ccc(CC(=O)Nc2ccn(Cc3ccc(F)cc3)n2)cc1` [Example 6, N-[1-(4-Fluoro-benzyl)-1H-pyrazol-3-yl]-2-(4-isopropyl-phenyl)-acetamide]: 6.6 nM.
The same measure for `COc1ccc(Cn2ccc(NC(=O)Cc3ccc(C(C)C)cc3)n2)cc1` [Example 7, 2-(4-Isopropyl-phenyl)-N-[1-(4-methoxy-benzyl)-1H-pyrazol-3-yl]-acetamide]: 7.9 nM; for `Cc1ccc(Cn2ccc(NC(=O)Cc3ccc(C(C)C)cc3)n2)cc1` [Example 9, 2-(4-Isopropyl-phenyl)-N-[1-(4-methyl-benzyl)-1H-pyrazol-3-yl]-acetamide]: 12 nM; for `CC(C)c1ccc(CC(=O)Nc2ccn(Cc3ccc(C#N)cc3)n2)cc1` [Example 11, N-[1-(4-Cyano-benzyl)-1H-pyrazol-3-yl]-2-(4-isopropyl-phenyl)-acetamide]: 5.4 nM.
The same measure for `Cc1ccc(Cn2ccc(NC(=O)Cc3ccc(N(C)C)nc3)n2)cc1` [Example 13, 2-(6-Dimethylamino-pyridin-3-yl)-N-[1-(4-methyl-benzyl)-1H-pyrazol-3-yl]-acetamide]: 133 nM; for `COc1ccc(Cn2ccc(NC(=O)Cc3ccc(N(C)C)nc3)n2)cc1` [Example 14, 2-(6-Dimethylamino-pyridin-3-yl)-N-[1-(4-methoxy-benzyl)-1H-pyrazol-3-yl]-acetamide]: 650 nM; for `CN(C)c1ccc(CC(=O)Nc2ccn(Cc3ccc(C#N)cc3)n2)cn1` [Example 15, N-[1-(4-Cyano-benzyl)-1H-pyrazol-3-yl]-2-(6-dimethylamino-pyridin-3-yl)-acetamide]: 374 nM.
As to `CCc1ccc(Cn2ccc(NC(=O)Cc3ccc(N(C)C)cc3)n2)cc1` [Example 16, 2-(4-Dimethylamino-phenyl)-N-[1-(4-ethyl-benzyl)-1H-pyrazol-3-yl]-acetamide], the IC50 amounted to 10 nM.
For the compound `CC(C)c1ccc(Cn2ccc(NC(=O)Cc3ccc(N(C)C)cc3)n2)cc1` [Example 17, 2-(4-Dimethylamino-phenyl)-N-[1-(4-isopropyl-benzyl)-1H-pyrazol-3-yl]-acetamide], the 50% inhibitory concentration (IC50) came out at 12 nM.
Consider `CN(C)c1ccc(CC(=O)Nc2ccn(Cc3ccc(C(C)(C)C)cc3)n2)cc1` [Example 18, N-[1-(4-tert-Butyl-benzyl)-1H-pyrazol-3-yl]-2-(4-dimethylamino-phenyl)-acetamide], for which the half-inhibitory concentration (IC50) was 25 nM.
Regarding `CN(C)c1ccc(CC(=O)Nc2ccn(Cc3ccc(F)c(OC(F)(F)F)c3)n2)cc1` [Example 22, 2-(4-Dimethylamino-phenyl)-N-[1-(4-fluoro-3-trifluoromethoxy-benzyl)-1H-pyrazol-3-yl]-acetamide], the IC50 is 5 nM.
The same measure for `CN(C)c1ccc(CC(=O)Nc2ccn(Cc3ccc(F)c(C(F)(F)F)c3)n2)cc1` [Example 23, 2-(4-Dimethylamino-phenyl)-N-[1-(4-fluoro-3-trifluoromethyl-benzyl)-1H-pyrazol-3-yl]-acetamide]: 6.4 nM.
For `CN(C)c1ccc(CC(=O)Nc2ccn(Cc3cc(F)c(F)c(F)c3)n2)cc1` [Example 24, 2-(4-Dimethylamino-phenyl)-N-[1-(3,4,5-trifluoro-benzyl)-1H-pyrazol-3-yl]-acetamide], the IC50 was determined as 13 nM.
The same measure for `Cc1cc(Cn2ccc(NC(=O)Cc3ccc(N(C)C)cc3)n2)cc(C)c1F` [Example 25, 2-(4-Dimethylamino-phenyl)-N-[1-(4-fluoro-3,5-dimethyl-benzyl)-1H-pyrazol-3-yl]-acetamide]: 64 nM; for `CN(C)c1ccc(CC(=O)Nc2ccn(Cc3ccc(Cl)c(F)c3)n2)cc1` [Example 26, N-[1-(4-Chloro-3-fluoro-benzyl)-1H-pyrazol-3-yl]-2-(4-dimethylamino-phenyl)-acetamide]: 5.4 nM; for `CN(C)c1ccc(CC(=O)Nc2ccn(Cc3ccc(Cl)c(C(F)(F)F)c3)n2)cc1` [Example 27, N-[1-(4-Chloro-3-trifluoromethyl-benzyl)-1H-pyrazol-3-yl]-2-(4-dimethylamino-phenyl)-acetamide]: 61 nM.
Turning to `COc1ccc(Cn2ccc(NC(=O)Cc3ccc(N(C)C)cc3)n2)cc1C(F)(F)F` [Example 29, 2-(4-Dimethylamino-phenyl)-N-[1-(4-methoxy-3-trifluoromethyl-benzyl)-1H-pyrazol-3-yl]-acetamide], the IC50 was 25 nM.
The same measure for `Cc1cc(Cn2ccc(NC(=O)Cc3ccc(N(C)C)cc3)n2)ccc1F` [Example 30, 2-(4-Dimethylamino-phenyl)-N-[1-(4-fluoro-3-methyl-benzyl)-1H-pyrazol-3-yl]-acetamide]: 8.6 nM.
The same measure for `CN(C)c1ccc(CC(=O)Nc2ccn(Cc3ccc(F)c(Cl)c3)n2)cc1` [Example 31, N-[1-(3-Chloro-4-fluoro-benzyl)-1H-pyrazol-3-yl]-2-(4-dimethylamino-phenyl)-acetamide]: 4 nM; for `Cc1ccc(Cn2ccc(NC(=O)Cc3ccc(N(C)C)cc3)n2)cc1F` [Example 32, 2-(4-Dimethylamino-phenyl)-N-[1-(3-fluoro-4-methyl-benzyl)-1H-pyrazol-3-yl]-acetamide]: 7.6 nM; for `CN(C)c1ccc(CC(=O)Nc2ccn(Cc3ccc(C#N)cn3)n2)cc1` [Example 33, N-[1-(5-Cyano-pyridin-2-ylmethyl)-1H-pyrazol-3-yl]-2-(4-dimethylamino-phenyl)-acetamide]: 101 nM.

In general, IC50 refers to the concentration needed to halve the response being measured.
